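Exposure lasted 48 hours, with cells grown in 96-well plates and compounds tested at five concentrations. GI50 = concentration required for 50% inhibition of growth.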 Activity calls are given as the source filed them. Cut-off read from the data, not from the text of the source: active = GI50 up to about 1.1 µM and inactive = higher.
How the values were obtained:
Assay in all cases: NCI-60 cell line screen, 48 h
786-0 = system: 786-0
A498 = system: A498
A549 = system: A549
ACHN = system: ACHN
CAKI-1 = system: CAKI-1
CCRF-CEM = system: CCRF-CEM
COLO 205 = system: COLO 205
DLD-1 = system: DLD-1
HCT-116 = system: HCT-116
HCT-15 = system: HCT-15
HL-60 = system: HL-60
HOP-18 = system: HOP-18
HOP-62 = system: HOP-62
HOP-92 = system: HOP-92
HT-29 = system: HT-29
IGROV-1 = system: IGROV-1
K562 = system: K562
KM-20L2 = system: KM-20L2
KM12 = system: KM12
LOX IMVI = system: LOX IMVI
LXFL 529 = system: LXFL 529
M14 = system: M14
M19-MEL = system: M19-MEL
MOLT-4 = system: MOLT-4
Malme-3M = system: Malme-3M
NCI-H226 = system: NCI-H226
NCI-H23 = system: NCI-H23
NCI-H460 = system: NCI-H460
NCI-H522 = system: NCI-H522
OVCAR-3 = system: OVCAR-3
OVCAR-4 = system: OVCAR-4
OVCAR-5 = system: OVCAR-5
OVCAR-8 = system: OVCAR-8
RPMI-8226 = system: RPMI-8226
SF-268 = system: SF-268
SF-295 = system: SF-295
SF-539 = system: SF-539
SK-MEL-28 = system: SK-MEL-28
SK-MEL-2 = system: SK-MEL-2
SK-MEL-5 = system: SK-MEL-5
SK-OV-3 = system: SK-OV-3
SN12C = system: SN12C
SNB-19 = system: SNB-19
SNB-75 = system: SNB-75
SNB-78 = system: SNB-78
SR = system: SR
SW-620 = system: SW-620
TK-10 = system: TK-10
U-251 = system: U-251
UACC-257 = system: UACC-257
UACC-62 = system: UACC-62
UO-31 = system: UO-31
BT-549 = system: BT-549
DMS-114 = system: DMS-114
DU-145 = system: DU-145
EKVX = system: EKVX
HCC 2998 = system: HCC 2998
Hs-578T = system: Hs-578T
MCF7 = system: MCF7
MDA-MB-231 = system: MDA-MB-231
MDA-MB-435 = system: MDA-MB-435
MDA-N = system: MDA-N
NCI/ADR-RES = system: NCI/ADR-RES
PC-3 = system: PC-3
RXF 393 = system: RXF 393
T47D = system: T47D
DMS-273 = system: DMS-273

COc1ccc(NC(=O)CC(=O)NN2C(=O)/C(=C/c3ccc(N(CCC#N)CCC#N)cc3C)N=C2/C=C\c2ccccc2)cc1
GI50 (786-0): > 100 µM (inactive)
GI50 (A498): > 100 µM (inactive)
GI50 (A549): > 100 µM (inactive)
GI50 (ACHN): > 100 µM (inactive)
GI50 (CAKI-1): > 100 µM (inactive)
GI50 (CCRF-CEM): > 100 µM (inactive)
GI50 (COLO 205): > 100 µM (inactive)
GI50 (DLD-1): > 100 µM (inactive)
GI50 (HCT-116): > 100 µM (inactive)
GI50 (HCT-15): > 100 µM
GI50 (HL-60): > 100 µM (inactive)
GI50 (HOP-18): 18.5 µM (inactive)
GI50 (HOP-62): > 100 µM (inactive)
GI50 (HOP-92): > 100 µM (inactive)
GI50 (HT-29): > 100 µM (inactive)
GI50 (IGROV-1): > 100 µM (inactive)
GI50 (K562): > 100 µM (inactive)
GI50 (KM-20L2): > 100 µM (inactive)
GI50 (KM12): > 100 µM (inactive)
GI50 (LOX IMVI): > 100 µM (inactive)
GI50 (LXFL 529): > 100 µM (inactive)
GI50 (M14): > 100 µM (inactive)
GI50 (M19-MEL): > 100 µM (inactive)
GI50 (MOLT-4): > 100 µM (inactive)
GI50 (Malme-3M): > 100 µM (inactive)
GI50 (NCI-H226): > 100 µM (inactive)
GI50 (NCI-H23): > 100 µM (inactive)
GI50 (NCI-H460): > 100 µM (inactive)
GI50 (NCI-H522): > 100 µM (inactive)
GI50 (OVCAR-3): > 100 µM (inactive)
GI50 (OVCAR-4): > 100 µM (inactive)
GI50 (OVCAR-5): > 100 µM (inactive)
GI50 (OVCAR-8): > 100 µM (inactive)
GI50 (RPMI-8226): > 100 µM (inactive)
GI50 (SF-268): > 100 µM (inactive)
GI50 (SF-295): > 100 µM (inactive)
GI50 (SF-539): > 100 µM (inactive)
GI50 (SK-MEL-28): > 100 µM (inactive)
GI50 (SK-MEL-2): > 100 µM (inactive)
GI50 (SK-MEL-5): > 100 µM (inactive)
GI50 (SK-OV-3): > 100 µM (inactive)
GI50 (SN12C): > 100 µM (inactive)
GI50 (SNB-19): > 100 µM (inactive)
GI50 (SNB-75): 59.3 µM (inactive)
GI50 (SNB-78): > 100 µM (inactive)
GI50 (SR): > 100 µM (inactive)
GI50 (SW-620): > 100 µM (inactive)
GI50 (TK-10): > 100 µM (inactive)
GI50 (U-251): > 100 µM (inactive)
GI50 (UACC-257): > 100 µM (inactive)
GI50 (UACC-62): > 100 µM (inactive)
GI50 (UO-31): > 100 µM (inactive)

CN(C)C(=S)/N=c1\ssc(=S)n1Cc1cccs1
GI50 (786-0): 3.83 µM (inactive)
GI50 (A498): 4.13 µM (inactive)
GI50 (A549): 5.27 µM (inactive)
GI50 (ACHN): 9.35 µM (inactive)
GI50 (BT-549): 11 µM (inactive)
GI50 (CAKI-1): 3.11 µM (inactive)
GI50 (CCRF-CEM): 6.46 µM (inactive)
GI50 (COLO 205): 2.36 µM (inactive)
GI50 (DLD-1): 3.82 µM (inactive)
GI50 (DMS-114): 2.15 µM (inactive)
GI50 (DU-145): 3.24 µM (inactive)
GI50 (EKVX): 26.2 µM (inactive)
GI50 (HCC 2998): 6.7 µM (inactive)
GI50 (HCT-116): 3.15 µM (inactive)
GI50 (HCT-15): 2.84 µM
GI50 (HL-60): 2.44 µM (inactive)
GI50 (HOP-18): 8.89 µM (inactive)
GI50 (HOP-62): 3.64 µM (inactive)
GI50 (HOP-92): 5.26 µM (inactive)
GI50 (HT-29): 2.62 µM (inactive)
GI50 (Hs-578T): 1.51 µM (inactive)
GI50 (IGROV-1): 4.11 µM (inactive)
GI50 (K562): 2.1 µM (inactive)
GI50 (KM-20L2): 1.87 µM (inactive)
GI50 (KM12): 3.39 µM (inactive)
GI50 (LOX IMVI): 4.06 µM (inactive)
GI50 (LXFL 529): 4.75 µM (inactive)
GI50 (M14): 3.01 µM (inactive)
GI50 (M19-MEL): 3.16 µM (inactive)
GI50 (MCF7): 1.99 µM (inactive)
GI50 (MDA-MB-231): 4.42 µM (inactive)
GI50 (MDA-MB-435): 0.658 µM (active)
GI50 (MDA-N): 0.604 µM (active)
GI50 (MOLT-4): 17.5 µM (inactive)
GI50 (Malme-3M): 2.4 µM (inactive)
GI50 (NCI-H226): 13.7 µM (inactive)
GI50 (NCI-H23): 3.75 µM (inactive)
GI50 (NCI-H460): 3.73 µM (inactive)
GI50 (NCI-H522): 0.39 µM (active)
GI50 (NCI/ADR-RES): 1.08 µM (active)
GI50 (OVCAR-3): 1.76 µM (inactive)
GI50 (OVCAR-4): 14.6 µM (inactive)
GI50 (OVCAR-5): > 55.3 µM (inactive)
GI50 (OVCAR-8): 4.99 µM (inactive)
GI50 (PC-3): 2.4 µM (inactive)
GI50 (RPMI-8226): 5.81 µM (inactive)
GI50 (RXF 393): 2.19 µM (inactive)
GI50 (SF-268): 5.45 µM (inactive)
GI50 (SF-295): 1.93 µM (inactive)
GI50 (SF-539): 2.55 µM (inactive)
GI50 (SK-MEL-28): 8.41 µM (inactive)
GI50 (SK-MEL-2): 2.88 µM (inactive)
GI50 (SK-MEL-5): 1.04 µM (active)
GI50 (SK-OV-3): 3.46 µM (inactive)
GI50 (SN12C): 6.9 µM (inactive)
GI50 (SNB-19): 6.05 µM (inactive)
GI50 (SNB-75): 1.52 µM (inactive)
GI50 (SNB-78): 6.68 µM (inactive)
GI50 (SR): 4.88 µM (inactive)
GI50 (SW-620): 2.07 µM (inactive)
GI50 (T47D): 8.51 µM (inactive)
GI50 (TK-10): 8.24 µM (inactive)
GI50 (U-251): 3.76 µM (inactive)
GI50 (UACC-257): 6.76 µM (inactive)
GI50 (UACC-62): 2.7 µM (inactive)
GI50 (UO-31): 6.28 µM (inactive)

Cc1cccc(C)c1N1C(=O)C(=O)C(c2nc3ccccc3s2)/C(=N/c2cccc3c(=O)[nH][nH]c(=O)c23)C1=O (configuration not stated)
GI50 (786-0): > 100 µM (inactive)
GI50 (A498): > 100 µM (inactive)
GI50 (A549): > 100 µM (inactive)
GI50 (ACHN): > 100 µM (inactive)
GI50 (CAKI-1): > 100 µM (inactive)
GI50 (CCRF-CEM): 45.7 µM (inactive)
GI50 (COLO 205): 41.5 µM (inactive)
GI50 (DLD-1): > 100 µM (inactive)
GI50 (DMS-273): > 100 µM (inactive)
GI50 (EKVX): > 100 µM (inactive)
GI50 (HCC 2998): > 100 µM (inactive)
GI50 (HCT-116): > 100 µM (inactive)
GI50 (HCT-15): > 100 µM
GI50 (HL-60): 71.3 µM (inactive)
GI50 (HOP-18): > 100 µM (inactive)
GI50 (HOP-62): > 100 µM (inactive)
GI50 (HOP-92): 92 µM (inactive)
GI50 (HT-29): > 100 µM (inactive)
GI50 (IGROV-1): > 100 µM (inactive)
GI50 (K562): 98.4 µM (inactive)
GI50 (KM-20L2): > 100 µM (inactive)
GI50 (KM12): > 100 µM (inactive)
GI50 (LOX IMVI): > 100 µM (inactive)
GI50 (LXFL 529): > 100 µM (inactive)
GI50 (M14): > 100 µM (inactive)
GI50 (M19-MEL): > 100 µM (inactive)
GI50 (MOLT-4): 66.5 µM (inactive)
GI50 (Malme-3M): > 100 µM (inactive)
GI50 (NCI-H226): > 100 µM (inactive)
GI50 (NCI-H23): > 100 µM (inactive)
GI50 (NCI-H460): > 100 µM (inactive)
GI50 (OVCAR-3): > 100 µM (inactive)
GI50 (OVCAR-4): 79.3 µM (inactive)
GI50 (OVCAR-5): > 100 µM (inactive)
GI50 (OVCAR-8): > 100 µM (inactive)
GI50 (RPMI-8226): > 100 µM (inactive)
GI50 (SF-268): > 100 µM (inactive)
GI50 (SF-295): > 100 µM (inactive)
GI50 (SF-539): > 100 µM (inactive)
GI50 (SK-MEL-28): > 100 µM (inactive)
GI50 (SK-MEL-2): > 100 µM (inactive)
GI50 (SK-MEL-5): > 100 µM (inactive)
GI50 (SK-OV-3): > 100 µM (inactive)
GI50 (SN12C): > 100 µM (inactive)
GI50 (SNB-19): > 100 µM (inactive)
GI50 (SNB-75): 81.8 µM (inactive)
GI50 (SNB-78): > 100 µM (inactive)
GI50 (SR): 99.5 µM (inactive)
GI50 (SW-620): > 100 µM (inactive)
GI50 (TK-10): > 100 µM (inactive)
GI50 (U-251): 83 µM (inactive)
GI50 (UACC-257): > 100 µM (inactive)
GI50 (UACC-62): > 100 µM (inactive)
GI50 (UO-31): > 100 µM (inactive)

Source: ChEMBL document CHEMBL1201862, “PubChem BioAssay data set” (2004)
